What was measured:
Experiment in all cases: Test 1A glasshouse assay, post-emergence herbicidal activity
Type in all cases: in vivo
[1] = tested on: Alopecurus myosuroides (ALOMY); conditions: application rate 250 g/ha, 13 days after application, visual (100%=total damage; 0%=no damage); for pest or weed control at 250 g/ha: Alopecurus myosuroides, 312 h, read-out: Post-emergence Herbicidal Activity (% Phytotoxicity) ALOMY
How it was run: (§1)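 Pots sown in standard soil; plants grown 8 days in glasshouse (24/16 °C day/night, 14 h light, 65% humidity), then sprayed with compound formulated in acetone/water (50:50) with 0.5% Tween 20. Regrown under same conditions, watered twice daily; visual % phytotoxicity scored 13 days after application (0 = none, 100 = total damage).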

Avena fatua (AVEFA) = conditions: Avena fatua, 312 h, application rate 250 g/ha, 13 days after application, visual (100%=total damage; 0%=no damage), read-out: Post-emergence Herbicidal Activity (% Phytotoxicity) AVEFA
How it was run: as §1

[2] = tested on: Echinochloa crus-galli (ECHCG); conditions: Echinochloa crus-galli, 312 h, application rate 250 g/ha, 13 days after application, visual (100%=total damage; 0%=no damage), read-out: Post-emergence Herbicidal Activity (% Phytotoxicity) ECHCG
How it was run: as §1

Lolium perenne (LOLPE) = conditions: Lolium perenne, 312 h, application rate 250 g/ha, 13 days after application, visual (100%=total damage; 0%=no damage), read-out: Post-emergence Herbicidal Activity (% Phytotoxicity) LOLPE
How it was run: as §1

Compound	pest or weed control at 250 g/ha [1] [%]	Post-emergence Herbicidal Activity (% Phytotoxicity) ALOMY [1] [%]	pest or weed control at 250 g/ha (Avena fatua (AVEFA)) [%]	pest or weed control at 250 g/ha [2] [%]	pest or weed control at 250 g/ha (Lolium perenne (LOLPE)) [%]
Cc1cc(-n2cc(Cl)nn2)cc(C)c1C1C(=O)CC(CCNC(=O)c2ccccn2)C1=O (centres unmarked) [Compound A170, N-[2-[3-[4-(4-chlorotriazol-1-yl)-2,6-dimethyl-phenyl]-2,4-dioxo-cyclopentyl]ethyl]pyridine-2-carboxamide]	90	90	100	100	90
Cc1cc(-n2cc(Cl)cn2)cc(C)c1C1C(=O)CC(CCNC(=O)c2cccc(C(F)(F)F)n2)C1=O (centres unmarked) [Compound A139]	90	–	90	90	100
Cc1cccc(C(=O)NCCC2CC(=O)C(c3c(C)cc(-n4cc(Cl)cn4)cc3C)C2=O)n1 (centres unmarked) [Compound A130]	30	–	80	80	80
Cc1cc(C)c(C2C(=O)CC(CCNC(=O)c3ccc(F)cn3)C2=O)c(C)c1 (centres unmarked) [Compound A97]	100	–	100	100	100
COc1cc(C)c(C2C(=O)CC(CCNC(=O)c3ccccn3)C2=O)c(C)c1 (centres unmarked) [Compound A122]	100	–	90	100	100
Cc1cc(C)c(C2C(=O)CC(CCNC(=O)c3ccc(F)nc3F)C2=O)c(C)c1 (centres unmarked) [Compound A166]	80	–	90	60	90
Cc1cc(C)c(C2C(=O)CC(CCNC(=O)c3snnc3C)C2=O)c(C)c1 (centres unmarked) [Compound A180]	70	–	80	90	80
CCc1cc(Br)cc(C)c1C1C(=O)CC(CCNC(=O)c2ccccn2)C1=O (centres unmarked) [Compound A83]	100	–	100	100	100
Cc1cc(Cl)c(C2C(=O)CC(CCNC(=O)c3ncccc3F)C2=O)c(Cl)c1 (centres unmarked) [Compound A144]	30	–	90	100	90
CC#Cc1ccc(C(=O)NCCC2CC(=O)C(c3c(C)cc(C)cc3C)C2=O)nc1 (centres unmarked) [Compound A192]	80	–	90	100	100
Cc1cc(-c2ncc(Cl)cc2F)cc(C)c1C1C(=O)CC(CCNC(=O)c2ccccn2)C1=O (centres unmarked) [Compound A102]	100	–	100	100	100
Cc1cc(-n2cc(Cl)cn2)cc(C)c1C1=C(OC(=O)c2ccc(F)cc2)CC(CCNC(=O)c2ccccn2)C1=O (centres unmarked) [Compound P14]	100	–	100	100	100
Cc1cc(C)c(C2C(=O)CC(CCNC(=O)c3cscn3)C2=O)c(C)c1 (centres unmarked) [Compound A53]	80	–	90	100	100
Cc1cc(C)c(C2C(=O)CC(CCNC(=O)c3nc(F)ccc3Br)C2=O)c(C)c1 (centres unmarked) [Compound A149]	100	–	100	100	100
Cc1cc(C)c(C2C(=O)CC(CCNC(=O)c3cc(C)nn3C)C2=O)c(C)c1 (centres unmarked) [Compound A72]	90	–	90	70	90
Cc1cc(C)c(C2C(=O)CC(CCNC(=O)c3sc(C(F)(F)F)nc3C(F)(F)F)C2=O)c(C)c1 (centres unmarked) [Compound A172]	90	–	90	100	100
Cc1ccnc(C(=O)NCCC2CC(=O)C(c3c(C)cc(C)cc3C)C2=O)c1 (centres unmarked) [Compound A119]	100	–	90	100	90
Cc1cc(C)c(C2C(=O)CC(CCNC(=O)c3cc(C4CC4)on3)C2=O)c(C)c1 (centres unmarked) [Compound A162]	70	–	90	90	100
Cc1cc(C)c(C2C(=O)CC(CCNC(=O)c3ncccc3C)C2=O)c(C)c1 (centres unmarked) [Compound A62]	100	–	80	80	100
Cc1cc(-n2cc(Cl)cn2)cc(C)c1C1C(=O)CC(CCNC(=O)c2cccc(Br)n2)C1=O (centres unmarked) [Compound A134]	100	–	100	100	100
Cc1cc(C)c(C2C(=O)CC(CCNC(=O)c3nn(C)c(C)c3Cl)C2=O)c(C)c1 (centres unmarked) [Compound A177]	100	–	90	100	90
CCSC(=O)OC1=C(c2c(C)cc(C)cc2C)C(=O)CC1CCNC(=O)c1ccc(Br)cn1 (centres unmarked) [Compound P10]	100	–	100	100	100
Cc1cc(C)c(C2C(=O)CC(CCNC(=O)c3ncccc3Cl)C2=O)c(C)c1 (centres unmarked) [Compound A44, 3-chloro-N-[2-[2,4-dioxo-3-(2,4,6-trimethylphenyl)cyclopentyl]ethyl]pyridine-2-carboxamide]	100	–	90	100	100
Cc1cc(C)c(C2C(=O)CC(CCNC(=O)c3cccs3)C2=O)c(C)c1 (centres unmarked) [Compound A5]	50	–	30	60	70
Cc1cc(C)c(C2C(=O)CC(CCNC(=O)c3cccc(Cl)n3)C2=O)c(C)c1 (centres unmarked) [Compound A47]	80	–	90	100	100
Cc1cc(-c2ccc(F)c(Cl)c2)cc(C)c1C1C(=O)CC(CCNC(=O)c2ccccn2)C1=O (centres unmarked) [Compound A110]	90	–	100	100	100
Cc1cc(C)c(C2C(=O)CC(CCNC(=O)c3ccco3)C2=O)c(C)c1 (centres unmarked) [Compound A7]	60	–	50	90	60
Cc1cc(C)c(C2C(=O)CC(CCNC(=O)c3cccnc3Br)C2=O)c(C)c1 (centres unmarked) [Compound A168]	60	–	80	80	70

From patent US9808003B2, “Herbicidally active 2-(substituted-phenyl)-cyclopentane-1,3-dione compounds and derivatives thereof” (Syngenta Limited, priority 2013, dated 2017)
